In patent US8796253B2, “Heteroaryl substituted pyrazole derivatives useful for treating hyper-proliferative disorders and diseases associated with angiogenesis” (Bayer Intellectual Property GmbH, priority 2007, dated 2014):

Test system: HCT-116 cells stably transfected with a Luciferase reporter gene under the control of HIF-responsive element
Assay: HIF-Luciferase Assay
Format: cell-based
Details: Homo sapiens, HCT-116, HIF-Luciferase Assay, HCT-116 reporter cells, overnight at 1% oxygen
Description: HCT-116 cells stably transfected with a Luciferase reporter gene under the control of HIF-responsive element were plated in white 96- or 384-well plates at 30,000 or 5,000 cells/well, respectively, in 50 μL/well media (RPMI with 10% fetal bovine serum and 100 μg/mL Hygromycin). Cells were incubated overnight at 37° C. in a humidified incubator containing 5% CO2 under normal oxygen. The next day test compounds were added to the wells at various concentrations (0-10 μM, 0.1% final DMSO concentration) and placed in a hypoxic chamber overnight at 1% oxygen. Following the exposure to hypoxic conditions, 50 μL/well of Bright Glo reagent (Promega, Wisconsin, USA) was added to the wells and luminescence was measured after 5 min. Cells incubated under normal oxygen levels were used as background control. […] Compounds that have IC50 values between 1 μM and 10 μM include those of Examples 8, 16, 38, 39, 40, 41, 42, 43, 47, 48, 53, 54, 56, 57, 66, 69, and 72.

SMILES: Cc1ccc(Cn2nc(-c3nc4ccc(C(F)(F)F)cc4[nH]3)cc2C)cc1 [Example 44, 2-[5-methyl-1-(4-methylbenzyl)-1H-pyrazol-3-yl]-6-(trifluoromethyl)-1H-benzimidazole]
- IC50 (potency groups): ≤ 1000 nM

SMILES: Cc1ccc(Cn2nc(-c3nc(-c4ccc(F)cc4)no3)cc2C)cc1 [Example 10, 3-(4-fluorophenyl)-5-[5-methyl-1-(4-methylbenzyl)-1H-pyrazol-3-yl]-1,2,4-oxadiazole]
- IC50 (potency groups): ≤ 1000 nM

SMILES: Cc1ccc(Cn2nc(-c3nc4ccc(-c5ccccc5Cl)cc4[nH]3)cc2C)cc1 [Example 62, 6-(2-chlorophenyl)-2-[5-methyl-1-(4-methylbenzyl)-1H-pyrazol-3-yl]-1H-benzimidazole]
- IC50 (potency groups): ≤ 1000 nM

SMILES: Cc1ccc(Cn2nc(-c3nc4ccc(-c5ccc(F)cc5)cc4[nH]3)cc2C)cc1 [Example 59, 6-(4-Fluorophenyl)-2-[5-methyl-1-(4-methylbenzyl)-1H-pyrazol-3-yl]-1H-benzimidazole]
- IC50 (individual values): 5 nM
- IC50 (potency groups): ≤ 1000 nM

SMILES: Cc1ccc(Cn2nc(-c3nc(-c4ccccc4)c(-c4ccccc4)[nH]3)cc2C)cc1 [Example 66, 3-(4,5-diphenyl-1H-imidazol-2-yl)-5-methyl-1-(4-methylbenzyl)-1H-pyrazole]
- IC50 (potency groups): 1000 to 10000 nM

SMILES: Cc1ccc(Cn2nc(-c3nc(-c4ccc(SC(F)(F)F)cc4)no3)cc2C)cc1 [Example 105, 5-[5-methyl-1-(4-methylbenzyl)-1H-pyrazol-3-yl]-3-4-[(trifluoromethyl)sulfanyl]phenyl-1,2,4-oxadiazole]
- IC50 (individual values): 30 nM

SMILES: Cc1ccc(Cn2nc(-c3nc(-c4ccc(OCC(F)(F)F)cc4)no3)cc2C)cc1 [Example 18, 5-[5-Methyl-1-(4-methylbenzyl)-1H-pyrazol-3-yl]-3-[4-(2,2,2-trifluoroethoxy)phenyl]-1,2,4-oxadiazole]
- IC50 (individual values): 30 nM
- IC50 (potency groups): ≤ 1000 nM

SMILES: Cc1ccc(Cn2nc(-c3nc(-c4ccc(N5CCCC5=O)cc4)no3)cc2C)cc1 [Example 24, 1-(4-{5-[5-Methyl-1-(4-methylbenzyl)-1H-pyrazol-3-yl]-1,2,4-oxadiazol-3-yl}phenyl)pyrrolidin-2-one]
- IC50 (individual values): 80 nM
- IC50 (potency groups): ≤ 1000 nM

SMILES: Cc1ccc(Cn2nc(-c3nc4cc(-c5cccc(Cl)c5)ccc4o3)cc2C)cc1 [Example 36, 5-(3-chlorophenyl)-2-[5-methyl-1-(4-methylbenzyl)-1H-pyrazol-3-yl]-1,3-benzoxazole]
- IC50 (potency groups): ≤ 1000 nM

SMILES: Cc1ccc(Cn2nc(-c3nc4cc(Cc5ccccc5)ccc4o3)cc2C)cc1 [Example 33, 5-benzyl-2-[5-methyl-1-(4-methylbenzyl)-1H-pyrazol-3-yl]-1,3-benzoxazole]
- IC50 (group >10, unit inferred): > 10000 nM
